From US20170107229A1, “SUBSTITUTED TETRAHYDROPYRIDOTHIENOPYRIMIDINES” (BAYER PHARMA AKTIENGESELLSCHAFT, priority 2014, published 2017)

Biological target: T1, human full-length MKNK1 (Homo sapiens, UniProt Q9BUB5, T385D)
T1 construct: GST (N); purchased Carna Biosciences 02-145; host or cells: insect cells (baculovirus expression system)
Experiment: MKNK1 kinase high ATP assay (TR-FRET)
Type: biochemical
Conditions: high ATP (2 mM final), 15 min preincubation with enzyme, GST-MKNK1 (T344D)
Experimental: MKNK1-inhibitory activity at high ATP of compounds of the present invention after their preincubation with MKNK1 was quantified employing the TR-FRET-based MKNK1 high ATP assay as described in the following paragraphs.
A recombinant fusion protein of Glutathione-S-Transferase (GST, N-terminally) and human full-length MKNK1 (amino acids 1-424 and T344D of accession number BAA 19885.1), expressed in insect cells using baculovirus expression system and purified via glutathione sepharose affinity chromatography, was purchased from Carna Biosciences (product no 02-145) and used as enzyme. As substrate for the kinase reaction the biotinylated peptide biotin-Ahx-IKKRKLTRRKSLKG (C-terminus in amide form) was used, which can be purchased e.g. from the company Biosyntan (Berlin-Buch, Germany).
For the assay 50 nL of a 100fold concentrated solution of the test compound in DMSO was pipetted into a black low volume 384well microtiter plate (Greiner Bio-One, Frickenhausen, Germany), 2 μL of a solution of MKNK1 in aqueous assay buffer [50 mM HEPES pH 7.5, 5 mM MgCl2, 1.0 mM dithiothreitol, 0.005% (v/v) Nonidet-P40 (Sigma)] was added and the mixture was incubated for 15 min at 22° C. to allow pre-binding of the test compounds to the enzyme before the start of the kinase reaction. Then the kinase reaction was started by the addition of 3 μL of a solution of adenosine-tri-phosphate (ATP, 3.3 mM=>final conc. in the 5 μL assay volume is 2 mM) and substrate (0.1 μM=>final conc. in the 5 μL assay volume is 0.06 μM) in assay buffer and the resulting mixture was incubated for a reaction time of 30 min at 22° C. The concentration of MKNK1 was adjusted depending of the activity of the enzyme lot and was chosen appropriate to have the assay in the linear range, typical concentrations were in the range of 0.003 μg/mL. The reaction was stopped by the addition of 5 μL of a solution of TR-FRET detection reagents (5 nM streptavidine-XL665 [Cisbio Bioassays, Codolet, France] and 1 nM anti-ribosomal protein S6 (pSer236)-antibody from Invitrogen [#44921G] and 1 nM LANCE EU-W1024 labeled ProteinG [Perkin-Elmer, product no. AD0071]) in an aqueous EDTA-solution (100 mM EDTA, 0.1% (w/v) bovine serum albumin in 50 mM HEPES pH 7.5).
The resulting mixture was incubated for 1 h at 22° C. to allow the formation of complex between the phosphorylated biotinylated peptide and the detection reagents. Subsequently the amount of phosphorylated substrate was evaluated by measurement of the resonance energy transfer from the Eu-chelate to the streptavidine-XL. Therefore, the fluorescence emissions at 620 nm and 665 nm after excitation at 350 nm were measured in a TR-FRET reader, e.g. a Rubystar (BMG Labtechnologies, Offenburg, Germany) or a Viewlux (Perkin-Elmer). The ratio of the emissions at 665 nm and at […] was taken as the measure for the amount of phosphorylated substrate. The data were normalised (enzyme reaction without inhibitor=0% inhibition, all other assay components but no enzyme=100% inhibition).

T1 sequence (Q9BUB5 1-424 isoform Q9BUB5-2 T344D): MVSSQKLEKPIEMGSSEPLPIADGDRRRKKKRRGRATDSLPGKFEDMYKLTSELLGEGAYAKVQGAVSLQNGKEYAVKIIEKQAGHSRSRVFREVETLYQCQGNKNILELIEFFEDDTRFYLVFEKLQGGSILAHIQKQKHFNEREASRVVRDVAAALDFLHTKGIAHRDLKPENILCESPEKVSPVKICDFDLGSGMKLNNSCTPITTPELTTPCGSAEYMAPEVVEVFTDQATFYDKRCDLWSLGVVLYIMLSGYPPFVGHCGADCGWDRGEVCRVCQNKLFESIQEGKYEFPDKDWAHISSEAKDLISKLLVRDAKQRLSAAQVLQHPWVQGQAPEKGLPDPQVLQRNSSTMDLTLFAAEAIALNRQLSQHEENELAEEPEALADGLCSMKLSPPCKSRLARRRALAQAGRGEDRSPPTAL

Structure (SMILES) | IC50
CC(C)C(=O)N1CCc2c(sc3ncnc(Nc4ccc5[nH]ncc5c4)c23)C1 [Example 19, 1-[4-(1H-indazol-5-ylamino)-5,8-dihydropyrido[4′,3′:4,5]thieno[2,3-d]pyrimidin-7(6H)-yl]-2-methylpropan-1-one] | 15 nM
COc1cc2[nH]ncc2cc1Nc1ncnc2sc3c(c12)CCN(C(=O)C(C)C)C3 [Example 22, 1-{4-[(6-Methoxy-1H-indazol-5-yl)amino]-5,8-dihydropyrido[4′,3′:4,5]thieno[2,3-d]pyrimidin-7(6H)-yl}-2-methylpropan-1-one] | 4 nM
COc1cc2[nH]ncc2cc1Nc1ncnc2sc3c(c12)CCN(CCC(=O)N(C)C)C3 [Example 71, 3-{4-[(6-Methoxy-1H-indazol-5-yl)amino]-5,8-dihydropyrido[4′,3′:4,5]thieno[2,3-d]pyrimidin-7(6H)-yl}-N,N-dimethylpropanamide] | 19 nM
CN(C)C(=O)N1CCc2c(sc3ncnc(Nc4ccc5[nH]c(=O)sc5c4)c23)C1 [Example 17, N,N-Dimethyl-4-[(2-oxo-2,3-dihydro-1,3-benzothiazol-6-yl)amino]-5,8-dihydropyrido[4′,3′:4,5]thieno[2,3-d]pyrimidine-7(6H)-carboxamide] | 88 nM
COc1cc2[nH]ncc2cc1Nc1ncnc2sc3c(c12)CCN(CCCN1CCOCC1)C3 [Example 90, N-(6-Methoxy-1H-indazol-5-yl)-7-[3-(morpholin-4-yl)propyl]-5,6,7,8-tetrahydropyrido[4′,3′:4,5]thieno[2,3-d]pyrimidin-4-amine] | 4 nM
COc1cc2[nH]ncc2cc1Nc1ncnc2sc3c(c12)CCN(C(=O)C1CCCCC1)C3 [Example 92, Cyclohexyl{4-[(6-methoxy-1H-indazol-5-yl)amino]-5,8-dihydropyrido[4′,3′:4,5]thieno[2,3-d]pyrimidin-7(6H)-yl}methanone] | 3 nM
O=C(N1CCOCC1)N1CCc2c(sc3ncnc(Nc4cc5cn[nH]c5cc4Br)c23)C1 [Example 53, {4-[(6-Bromo-1H-indazol-5-yl)amino]-5,8-dihydropyrido[4′,3′:4,5]thieno[2,3-d]pyrimidin-7(6H)-yl}(morpholin-4-yl)methanone] | 258 nM
COc1cc2[nH]ncc2cc1Nc1ncnc2sc3c(c12)CCN(CCCN1CCCC1=O)C3 [Example 86, 1-(3-{4-[(6-Methoxy-1H-indazol-5-yl)amino]-5,8-dihydropyrido[4′,3′:4,5]thieno[2,3-d]pyrimidin-7(6H)-yl}propyl)pyrrolidin-2-one] | 12 nM
COc1cc2[nH]ncc2cc1Nc1ncnc2sc3c(c12)CCN(Cc1cc(C(=O)N(C)C)no1)C3 [Example 88, 5-({4-[(6-Methoxy-1H-indazol-5-yl)amino]-5,8-dihydropyrido[4′,3′:4,5]thieno[2,3-d]pyrimidin-7(6H)-yl}methyl)-N,N-dimethyl-1,2-oxazole-3-carboxamide] | 9 nM
CS(=O)(=O)N1CCc2c(sc3ncnc(Nc4ccn5nccc5c4)c23)C1 [Example 36, 7-(Methylsulfonyl)-N-(pyrazolo[1,5-a]pyridin-5-yl)-5,6,7,8-tetrahydropyrido[4′,3′:4,5]thieno[2,3-d]pyrimidin-4-amine] | 157 nM
COc1cc2[nH]ncc2cc1Nc1ncnc2sc3c(c12)CCN(CCCN1CCOCC1=O)C3 [Example 87, 4-(3-{4-[(6-Methoxy-1H-indazol-5-yl)amino]-5,8-dihydropyrido[4′,3′:4,5]thieno[2,3-d]pyrimidin-7(6H)-yl}propyl)morpholin-3-one] | 16 nM
CN1CCC(C(=O)N2CCc3c(sc4ncnc(Nc5cnc6[nH]ncc6c5)c34)C2)CC1 [Example 67, (1-Methylpiperidin-4-yl)[4-(1H-pyrazolo[3,4-b]pyridin-5-ylamino)-5,8-dihydropyrido[4′,3′:4,5]thieno[2,3-d]pyrimidin-7(6H)-yl]methanone] | 53 nM
COc1cc2[nH]ncc2cc1Nc1ncnc2sc3c(c12)CCN(C(=O)CCCS(C)(=O)=O)C3 [Example 9, 1-{4-[(6-Methoxy-1H-indazol-5-yl)amino]-5,8-dihydropyrido[4′,3′:4,5]thieno[2,3-d]pyrimidin-7(6H)-yl}-4-(methylsulfonyl)butan-1-one] | 2 nM
COc1cc2[nH]ncc2cc1Nc1ncnc2sc3c(c12)CCN(CCCN1C[C@@H](C)O[C@@H](C)C1)C3 [Example 89, 7-{3-[(2R,6S)-2,6-Dimethylmorpholin-4-yl]propyl}-N-(6-methoxy-1H-indazol-5-yl)-5,6,7,8-tetrahydropyrido[4′,3′:4,5]thieno[2,3-d]pyrimidin-4-amine] | 3 nM
COc1nc2[nH]ncc2cc1Nc1ncnc2sc3c(c12)CCNC3 [Example 45, N-(6-Methoxy-1H-pyrazolo[3,4-b]pyridin-5-yl)-5,6,7,8-tetrahydropyrido[4′,3′:4,5]thieno[2,3-d]pyrimidin-4-amine] | 87 nM
COc1cc2[nH]ncc2cc1Nc1ncnc2sc3c(c12)CCN(C(=O)C1CCN(C)CC1)C3 [Example 68, {4-[(6-Methoxy-1H-indazol-5-yl)amino]-5,8-dihydropyrido[4′,3′:4,5]thieno[2,3-d]pyrimidin-7(6H)-yl}(1-methylpiperidin-4-yl)methanone] | 9 nM
COc1cc2[nH]ncc2cc1Nc1ncnc2sc3c(c12)CCN(C(=O)c1cnc[nH]1)C3 [Example 75, 1H-Imidazol-5-yl{4-[(6-methoxy-1H-indazol-5-yl)amino]-5,8-dihydropyrido[4′,3′:4,5]thieno[2,3-d]pyrimidin-7(6H)-yl}methanone] | 6 nM
COc1cc2[nH]ncc2cc1NCCN(C)C(=O)N1CCc2c(sc3ncnc(Nc4cc5cn[nH]c5cc4OC)c23)C1 [Example 82, 4-[(6-Methoxy-1H-indazol-5-yl)amino]-N-{2-[(6-methoxy-1H-indazol-5-yl)amino]ethyl}-N-methyl-5,8-dihydropyrido[4′,3′:4,5]thieno[2,3-d]pyrimidine-7(6H)-carboxamide] | 48 nM
C[C@@H]1CN(C(=O)N2CCc3c(sc4ncnc(Nc5ccn6nccc6c5)c34)C2)C[C@H](C)O1 [Example 58, [(2R,6S)-2,6-Dimethylmorpholin-4-yl][4-(pyrazolo[1,5-a]pyridin-5-ylamino)-5,8-dihydropyrido[4′,3′:4,5]thieno[2,3-d]pyrimidin-7(6H)-yl]methanone] | 61 nM
CCOCCN(C)C(=O)N1CCc2c(sc3ncnc(Nc4cc5cn[nH]c5cc4OC)c23)C1 [Example 78, N-(2-Ethoxyethyl)-4-[(6-methoxy-1H-indazol-5-yl)amino]-N-methyl-5,8-dihydropyrido[4′,3′:4,5]thieno[2,3-d]pyrimidine-7(6H)-carboxamide] | 1020 nM
COc1cc2[nH]ncc2cc1Nc1ncnc2sc3c(c12)CCN(C(=O)CC(F)(F)F)C3 [Example 54, 3,3,3-Trifluoro-1-{4-[(6-methoxy-1H-indazol-5-yl)amino]-5,8-dihydropyrido[4′,3′:4,5]thieno[2,3-d]pyrimidin-7(6H)-yl}propan-1-one] | 6 nM
COc1cc2[nH]ncc2cc1Nc1ncnc2sc3c(c12)CCN(CCCN1CCNC1=O)C3 [Example 83, 1-(3-{4-[(6-Methoxy-1H-indazol-5-yl)amino]-5,8-dihydropyrido[4′,3′:4,5]thieno[2,3-d]pyrimidin-7(6H)-yl}propyl)imidazolidin-2-one] | 15 nM
CS(=O)(=O)N1CCc2c(sc3ncnc(Nc4cnc5[nH]ncc5c4)c23)C1 [Example 40, 7-(Methylsulfonyl)-N-(1H-pyrazolo[3,4-b]pyridin-5-yl)-5,6,7,8-tetrahydropyrido[4′,3′:4,5]thieno[2,3-d]pyrimidin-4-amine] | 139 nM
CC(C)(C)OC(=O)N1CCc2c(sc3ncnc(Nc4ccc5[nH]c(=O)sc5c4)c23)C1 [Example 3, tert-Butyl 4-[(2-oxo-2,3-dihydro-1,3-benzothiazol-6-yl)amino]-5,8-dihydropyrido[4′,3′:4,5]thieno[2,3-d]pyrimidine-7(6H)-carboxylate] | 71 nM
COc1cc2[nH]ncc2cc1Nc1ncnc2sc3c(c12)CCN(C(=O)C1CCCC1)C3 [Example 91, Cyclopentyl{4-[(6-methoxy-1H-indazol-5-yl)amino]-5,8-dihydropyrido[4′,3′:4,5]thieno[2,3-d]pyrimidin-7(6H)-yl}methanone] | 3 nM
